According to PubChem BioAssay (NCI):
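All cell lines were grown in 96-well plates and treated with compound for 48 hours. At the GI50, growth is halved. At the TGI there is no net growth.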

Key:
Test in all cases: inhibition of tumour cell growth, NCI panel, 48 h
[1] = test system: 786-0 renal
[2] = test system: A498 renal
[3] = test system: A549 NSCLC
[4] = test system: ACHN renal
[5] = test system: BT-549 breast
[6] = test system: CAKI-1 renal
[7] = test system: CCRF-CEM leukemia
[8] = test system: COLO 205 colon
[9] = test system: DU-145 prostate
[10] = test system: EKVX NSCLC
[11] = test system: HCC-2998 colon
[12] = test system: HCT-116 colon
[13] = test system: HCT-15 colon
[14] = test system: HL-60(TB) leukemia
[15] = test system: HOP-62 NSCLC
[16] = test system: HOP-92 NSCLC
[17] = test system: HS 578T breast
[18] = test system: HT29 colon
[19] = test system: IGROV1 ovarian
[20] = test system: K-562 leukemia
[21] = test system: KM12 colon
[22] = test system: LOX IMVI melanoma
[23] = test system: M14 melanoma
[24] = test system: MALME-3M melanoma
[25] = test system: MCF7 breast
[26] = test system: MDA-MB-231 breast
[27] = test system: MDA-MB-435
[28] = test system: MOLT-4 leukemia
[29] = test system: NCI-H226 lung
[30] = test system: NCI-H23 lung
[31] = test system: NCI-H460 lung
[32] = test system: NCI-H522 lung
[33] = test system: NCI/ADR-RES ovarian
[34] = test system: OVCAR-3 ovarian
[35] = test system: OVCAR-4 ovarian
[36] = test system: OVCAR-5 ovarian
[37] = test system: OVCAR-8 ovarian
[38] = test system: PC-3 prostate
[39] = test system: RPMI-8226 leukemia
[40] = test system: RXF 393 renal
[41] = test system: SF-268 CNS
[42] = test system: SF-295 CNS
[43] = test system: SF-539 CNS
[44] = test system: SK-MEL-2 melanoma
[45] = test system: SK-MEL-28 melanoma
[46] = test system: SK-MEL-5 melanoma
[47] = test system: SK-OV-3 ovarian
[48] = test system: SN12C renal
[49] = test system: SNB-19 CNS
[50] = test system: SNB-75 CNS
[51] = test system: SR leukemia
[52] = test system: SW-620 colon
[53] = test system: T-47D breast
[54] = test system: TK-10 renal
[55] = test system: U251 CNS
[56] = test system: UACC-257 melanoma
[57] = test system: UACC-62 melanoma
[58] = test system: UO-31 renal

Structure (SMILES): COc1ccc(-c2nn(C(=O)NCCN(C)C)cc2-c2ccncc2)cc1Cl
- GI50 [1]: 7.62 µM
- TGI [1]: 51.5 µM
- GI50 [2]: 2.12 µM
- TGI [2]: 5.95 µM
- GI50 [3]: 5.44 µM
- TGI [3]: > 100 µM
- GI50 [4]: 3.76 µM
- TGI [4]: > 100 µM
- GI50 [5]: 4.51 µM
- TGI [5]: > 100 µM
- GI50 [6]: 3.24 µM
- TGI [6]: 24.4 µM
- GI50 [7]: 7.47 µM
- TGI [7]: > 100 µM
- GI50 [8]: 3.5 µM
- TGI [8]: 13.9 µM
- GI50 [9]: 6.94 µM
- TGI [9]: 65.6 µM
- GI50 [10]: 2.23 µM
- TGI [10]: > 100 µM
- GI50 [11]: 10.1 µM
- TGI [11]: 46.4 µM
- GI50 [12]: 4.6 µM
- TGI [12]: > 100 µM
- GI50 [13]: 3.93 µM
- TGI [13]: > 100 µM
- GI50 [14]: 5.3 µM
- TGI [14]: 57.9 µM
- GI50 [15]: 2.99 µM
- TGI [15]: 20.9 µM
- GI50 [16]: 1.16 µM
- TGI [16]: 56.3 µM
- GI50 [17]: 2.79 µM
- TGI [17]: 9.21 µM
- GI50 [18]: 2.17 µM
- TGI [18]: 12.6 µM
- GI50 [19]: 8.74 µM
- TGI [19]: > 100 µM
- GI50 [20]: 5.66 µM
- TGI [20]: > 100 µM
- GI50 [21]: 4.01 µM
- TGI [21]: 43.5 µM
- GI50 [22]: 4.23 µM
- TGI [22]: 48.9 µM
- GI50 [23]: 5.52 µM
- TGI [23]: 24.4 µM
- GI50 [24]: 11.8 µM
- TGI [24]: > 100 µM
- GI50 [25]: 3.57 µM
- TGI [25]: > 100 µM
- GI50 [26]: 6.34 µM
- TGI [26]: > 100 µM
- GI50 [27]: 1.15 µM
- TGI [27]: 4.34 µM
- GI50 [28]: 4.67 µM
- TGI [28]: > 100 µM
- GI50 [29]: 4.11 µM
- TGI [29]: 63.7 µM
- GI50 [30]: 6.29 µM
- TGI [30]: 60.7 µM
- GI50 [31]: 3.83 µM
- TGI [31]: 35.4 µM
- GI50 [32]: 1.88 µM
- TGI [32]: 5.36 µM
- GI50 [33]: 3.1 µM
- TGI [33]: > 100 µM
- GI50 [34]: 4.32 µM
- TGI [34]: 39.1 µM
- GI50 [35]: 7.87 µM
- TGI [35]: > 100 µM
- GI50 [36]: 15.1 µM
- TGI [36]: > 100 µM
- GI50 [37]: 1.73 µM
- TGI [37]: 35.9 µM
- GI50 [38]: 4.62 µM
- TGI [38]: > 100 µM
- GI50 [39]: 9.71 µM
- TGI [39]: 81.8 µM
- GI50 [40]: 2.19 µM
- TGI [40]: 12.8 µM
- GI50 [41]: 3.68 µM
- TGI [41]: 37.2 µM
- GI50 [42]: 3 µM
- TGI [42]: 42.6 µM
- GI50 [43]: 2.28 µM
- TGI [43]: 13.1 µM
- GI50 [44]: 3.67 µM
- TGI [44]: 9.48 µM
- GI50 [45]: 4.01 µM
- TGI [45]: 38.3 µM
- GI50 [46]: 3.05 µM
- TGI [46]: 11.4 µM
- GI50 [47]: 3.12 µM
- TGI [47]: 15.5 µM
- GI50 [48]: 5.39 µM
- TGI [48]: > 100 µM
- GI50 [49]: 5.15 µM
- TGI [49]: > 100 µM
- GI50 [50]: 1.68 µM
- TGI [50]: 6.19 µM
- GI50 [51]: 6.03 µM
- TGI [51]: > 100 µM
- GI50 [52]: 3.35 µM
- TGI [52]: > 100 µM
- GI50 [53]: 11.6 µM
- TGI [53]: > 100 µM
- GI50 [54]: 1.86 µM
- TGI [54]: 56.1 µM
- GI50 [55]: 3.71 µM
- TGI [55]: > 100 µM
- GI50 [56]: 16.6 µM
- TGI [56]: > 100 µM
- GI50 [57]: 3.07 µM
- TGI [57]: 14.3 µM
- GI50 [58]: 8.62 µM
- TGI [58]: 53.6 µM
